“Also recorded” adds a separate entry of the source. Like-named read-outs stand apart in the source and are kept apart here. One block for each compound: values may come before it.
Assays:
[1] = biological target: T1, Human leukocyte elastase (HLE) (Homo sapiens, UniProt P08246); assay: Spectrophotometric assay of HLE inactivation (in vitro); assay type: biochemical
T1 construct: purchased Elastin Products, St. Louis, Mo
T1 sequence (P08246 30-267): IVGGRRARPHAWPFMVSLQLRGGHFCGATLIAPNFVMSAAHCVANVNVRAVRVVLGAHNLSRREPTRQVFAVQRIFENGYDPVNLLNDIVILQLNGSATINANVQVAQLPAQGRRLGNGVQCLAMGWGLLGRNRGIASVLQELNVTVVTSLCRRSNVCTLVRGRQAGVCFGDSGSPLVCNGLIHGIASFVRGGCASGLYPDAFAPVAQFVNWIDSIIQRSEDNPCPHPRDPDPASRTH
Method: The appropriate amount of inhibitor in acetonitrile was mixed with PPE in phosphate buffer solution and placed in a constant temperature bath. Aliquots were withdrawn at different time intervals and transferred to a cuvette containing 100 uL of substrate, 140 uL of acetonitrile, and 2 mL of phosphate buffer, pH 6.5. After incubating for 30 seconds, the absorbance change was monitored for two minutes at 347.5 nm. […] Controlled reactions for 100% PPE activity were run in the presence of acetonitrile. A similar procedure was followed for HLE.
(§1) The reaction of an irreversible inhibitor with PPE and HLE may be illustrated by the scheme shown below: [drawing 5] where EI is the noncovalently bound enzyme-inactivator complex and E-I is the final product with the inhibitor covalently bound to the enzyme. The kinetics data were analyzed according to known procedures. The apparent pseudo-first-order inactivation rate constants were determined from the slopes of semilogarithmic plots of enzymatic activity remaining versus time using the following equation: [formula] where Et /EO is the amount of active enzyme remaining after time "t".
The assay procedure used was the procedure identified relative to the tests above in Table I.
(kobsd) were determined by plotting in [E]t /[E]o vs time.

alpha-Chymotrypsin = alpha-Chymotrypsin (Bos taurus, UniProt P00766); assay: Inactivation of chymotrypsin; assay type: biochemical; details: for Inhibition of chymotrypsin (in words): comparable conditions
[2] = biological target: T2, Porcine pancreatic elastase (PPE) (Sus scrofa, UniProt P00772); assay: Spectrophotometric assay of PPE inactivation (in vitro); assay type: biochemical
T2 sequence (P00772 27-266): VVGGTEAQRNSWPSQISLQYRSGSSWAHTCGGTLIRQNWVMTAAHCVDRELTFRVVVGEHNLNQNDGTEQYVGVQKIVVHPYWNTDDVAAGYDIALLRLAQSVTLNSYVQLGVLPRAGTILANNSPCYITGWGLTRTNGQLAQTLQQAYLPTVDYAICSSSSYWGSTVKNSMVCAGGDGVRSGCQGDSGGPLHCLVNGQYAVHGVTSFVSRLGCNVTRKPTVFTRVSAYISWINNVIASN
Method: The enzyme assays used to evaluate the potency of the inhibitors in vitro were performed as follows: PPE was assayed spectrophotometrically at 347.5 nm with (tert-butoxycarbonyl)-alanyl-p-nitrophenol in 0.05 M phosphate buffer, pH 6.5, 25° C., or by using succinyl-L-trialanyl-p-nitroanilide in 0.1 M Tris buffer, pH 8.0, at 410 nm. HLE was assayed spectrophotometrically at 410 nm with succinyl-L-trialanyl-p-nitroanilide or methoxy succinyl ala-ala-pro-val-p-nitroanilide (As describe by K. Wakajima et al in the J. Biol. Chem, 254, 4027-4032 (1979) and T. Teshima et al, in J. Biol. Chem 257, 5085-5091 (1982). The potency of an inhibitor is determined by obtaining a kinetic determination of the bimolecular rate constant K3 /Ki (or Robsd /[I]). The HLE used in these studies may be obtained from Elastin Products, St. Louis, Mo.) in 0.1 M Tris buffer, pH 8.0.
The appropriate amount of inhibitor in acetonitrile was mixed with PPE in phosphate buffer solution and placed in a constant temperature bath. Aliquots were withdrawn at different time intervals and transferred to a cuvette containing 100 uL of substrate, 140 uL of acetonitrile, and 2 mL of phosphate buffer, pH 6.5. After incubating for 30 seconds, the absorbance change was monitored for two minutes at 347.5 nm. The inhibitor-to-enzyme ratios varied between 50 and 200, and the incubation intervals were shortened or lengthened depending upon the potency of the inhibitor. Controlled reactions for 100% PPE activity were run in the presence of acetonitrile. A similar procedure was followed for HLE.
as §1, with “"t". Inhibition is generally expressed in terms of k3 /Ki, M^-1 s^-1, wherein Ki is the disassociation constant for the enzyme inhibitor complex and k3 is a limiting rate constant for the irreversible loss of enzymatic activity.” for “"t".”
Table I below illustrates the inhibition found with assays of nine amino-acid-derived azolides against PPE and HLE.

thromboxane synthetease = details: cited from earlier work
PPE = details: 183rd ACS National Meeting, 1982; cited from earlier work
ICR mice = assay: Tolerance of mice to IP or IT injection of inhibitor; assay type: in vivo, mouse; details: all treatments of Table VIII
From the text: (§2) Animal models of emphysema include intratracheal administration of an elastolytic protease (PPE, HLE or papain) to cause a slowly progressive, destructive lesion in the lung. These proteases induce a lesion that is evident in the first few hours.
The method used for in vivo evaluation involved injection of a test solution into the trachea, or directly into one bronchus. In general, the method of Hayes et al J. Pathol, 117, 1-14 (1975) was used. A fine teflon tubing was connected to a pipette and inserted into the trachea after the animals were lightly anesthetized by IP injection. The contents of the pipette were then ejected. […] It was further determined that instillation of 40 ug of PPE in the same volume causes an unambigous emphysematous lesion which is restricted to the instilled lobe. After 7 to 10 days to allow inflamation to subside, the animals were sacrificed followed by exsanguination via the descending aorta. PPE was used rather than HLE to produce the lesion because emphysema developes over a much shorter period of time. Emphysema then was induced under acute condition so that the effects of the compounds tested could be investigated under the time constraints of a laboratory procedure. […]
Initially, the tolerance of 30-40 gram male ICR mice to intraperitoneal (IP) or intratracheal (IT) injection of inhibitor (Compound 5, Table I) was evaluated.

[3] = biological target: T2, Porcine pancreatic elastase (PPE); assay: Spectrophotometric assay of PPE inactivation (in vitro); assay type: biochemical; details: two tenths umoles
[4] = tested on: Elastase-induced Emphysema in the Mouse; assay: Protection against elastase-induced emphysema in the mouse, lung histology; assay type: in vivo
From the text: as §2
(§3) The method used for in vivo evaluation involved injection of a test solution into the trachea, or directly into one bronchus. In general, the method of Hayes et al J. Pathol, 117, 1-14 (1975) was used. A fine teflon tubing was connected to a pipette and inserted into the trachea after the animals were lightly anesthetized by IP injection. The contents of the pipette were then ejected. […] It was further determined that instillation of 40 ug of PPE in the same volume causes an unambigous emphysematous lesion which is restricted to the instilled lobe. After 7 to 10 days to allow inflamation to subside, the animals were sacrificed followed by exsanguination via the descending aorta. PPE was used rather than HLE to produce the lesion because emphysema developes over a much shorter period of time. Emphysema then was induced under acute condition so that the effects of the compounds tested could be investigated under the time constraints of a laboratory procedure. PPE with an animal model has been used in research in the past to study other, unrelated, inhibitors. (Bergeson, S. H. et al., European Patent No. 0189305 (1986).
In view of the fact that two tenths umoles of inhibitor is 100 times of the amount of the inhibitor necessary to inhibit the 40 ug of elastase in vitro, dosages were kept in the range of 1 to 10 umoles of inhibitor.
*Elastase: 20 ul containing 40 ug pancreatic elastase
As noted above, the method of in vivo testing is a modification of that of Hayes et al. However, the test solutions are inserted past the vocal chords into one bronchus by resistance. It was established initially that 20 ul of a solution of PPE (2 milligrams per milliter in saline) would create a reliable and unambigous emphysematous lesion. It should also be noted that the animals were scored for the presence of absence of such a lesion in any lobe without regard to the severity of the lesion.

[5] = tested on: PPE-induced emphysema in ICR mice; assay: Simultaneous intratracheal instillation of PPE with inhibitor, emphysema induction; assay type: in vivo, mouse; details: for Emphysema: 10 days
From the text: as §2, §3
Animals were also used to evaluate the effect of simultaneous intratracheal installation of PPE with the above inhibitor compound. The ICR mice in this experiment were used to evaluate the effect of the inhibitor in preventing emphysema induction. Table IX below illustrates the results of these tests:
All animals were sacrificed ten days after instillation.

[6] = 1 umole, simultaneous administration, n=4
[7] = 5 umoles, 30 min, then elastase, n=3
[8] = 10 umoles, 1 hr, then elastase, n=7
[9] = 10 umoles, 2 hr, then elastase, n=6
[10] = 10 umoles, 3 hr, then elastase, n=2

SMILES: CS(=O)(=O)ON1C(=O)CC(Cc2ccccc2)C1=O (racemic) [BENZYL, OSO2 CH3, (dl)-3-Benzyl-N-(methanesulfonyloxy) succinimide]
kinact/KI ([1]; Table V, succinimide derivatives, read-out: kobsd /[I], inhibition of leukocyte elastase): 1170 M⁻¹ s⁻¹
kinact/KI (alpha-Chymotrypsin; Table V footnote a, read-out: kobsd /[I], alpha-Chymotrypsin): 9000 M⁻¹ s⁻¹
Inhibition of chymotrypsin (in words) (alpha-Chymotrypsin): efficiently inactivated
Inhibition of PPE (in words) [2]: unaffected

SMILES: c1c[nH]cn1 [imidazole]
thromboxane synthetase inhibition (in words) (thromboxane synthetease): inhibitor of thromboxane synthetease

SMILES: CCCC(NC(=O)n1ccnc1)C(=O)OC (racemic) [DL-norvaline methyl ester derivative]
Irreversible inhibition of PPE (in words) (PPE): Particularly active

SMILES: CCC[C@H](NC(=O)n1ccnc1)C(=O)OC [Compound 5, Table I, L-N-(Imidazol-1-ylcarbonyl)norvaline Methyl Ester]
Survival (in words) (ICR mice): all animals survived
abnormal pulmonary pathology (ICR mice): no animals showed abnormal pulmonary pathology
effectiveness against HLE relative to PPE ([1]; HLE vs PPE in vitro): about eighty
Inhibition of HLE (in words) ([1]; listed as L-norvaline azolide): highly effective
0.2 umoles inhibitor relative to amount necessary to inhibit 40 ug elastase in vitro [3]: 100 times
Mouse Lung Histology, Emphysematous [4, 6]: 0
Mouse Lung Histology, Normal [4, 6]: 4
Mouse Lung Histology, Emphysematous [4, 7]: 0
Mouse Lung Histology, Normal [4, 7]: 3
Mouse Lung Histology, Emphysematous [4, 8]: 5
Mouse Lung Histology, Normal [4, 8]: 2
Mouse Lung Histology, Emphysematous [4, 9]: 6
Mouse Lung Histology, Normal [4, 9]: 0
Mouse Lung Histology, Emphysematous [4, 10]: 2
Mouse Lung Histology, Normal [4, 10]: 0
Mouse Lung Histology, Emphysematous ([4]; 10 umoles, no elastase, n=7): 0
Mouse Lung Histology, Normal ([4]; 10 umoles, no elastase, n=7): 7
tolerance of inhibitor doses ([4]; all mice, all doses): all mice treated tolerated all doses
effect on PPE in the animal model (in words) ([4]; mouse, in vivo): block the effects of PPE
toxic side effects ([4]; mouse, in vivo): devoid of any toxic side effects
Emphysema ([5]; IT 1 umole inhibitor, no PPE): No
Emphysema ([5]; IT 34 ug PPE + 1 umole inhibitor): No
Prevention of emphysema (in words) ([5]; given simultaneously with PPE): prevented emphysema

More lines, main results first:

kinact/KI ([1]; Table II monopotassium sulfonate salts, read-out: k2 /Ki (HLE)): 860 M⁻¹ s⁻¹
Inhibition of chymotrypsin (in words) (alpha-Chymotrypsin): no effect
Inhibition of PPE (in words) [2]: no effect
SMILES: CCC[C@H](NC(=O)S(=O)(=O)O)C(=O)OC [Compound 4, Table II]
Inhibition of HLE (in words) ([1]; listed as L-norvaline sulfonate salt): very potent inhibitors; also recorded: effective inhibitors

kinact/KI ([1]; Table I azolides, read-out: Human leukocyte elastase k3 /Ki): 193 M⁻¹ s⁻¹
Inhibition of HLE (in words) ([1]; listed as L-valine azolide): highly effective
kinact/KI ([2]; Table I azolides, read-out: Porcine pancreatic elastase k3 /Ki): 2.8 M⁻¹ s⁻¹
SMILES: COC(=O)[C@@H](NC(=O)n1ccnc1)C(C)C [Compound 3, Table I]
Irreversible inhibition of PPE (in words) (PPE): Particularly active

From patent US4929736A, “Latent isocynate derivatives useful for deactivating enzymes” (Board of Trustees of the Wichita State University, priority 1986, dated 1990)
